Experimental data: publication PMC9044946 (Journal of Virology, 2022)
Counter-ions that a name gives are not always drawn.

Tests used:
[1] = orally administered three times a day; cited from earlier work
[2] = system: TMPRSS2-induced production of S2′; assay type: cell-based; settings: acceptor cells ACE2 and TMPRSS2, 120 μM
[3] = system: S-mediated cell-to-cell fusion; assay type: cell-based; settings: acceptor cells ACE2 plus TMPRSS2, camostat 120 μM

Compound	Effect on COVID-19 symptoms [1]	Effect on enhanced TMPRSS2-induced production of S2′ with WT S [2]	Effect on TMPRSS2-enhanced fusion with μAS1/S2 [3]	Effect on TMPRSS2-reduced fusion with WT S [3]
CN(C)C(=O)COC(=O)Cc1ccc(OC(=O)c2ccc(NC(=N)N)cc2)cc1 [camostat mesylate]	did not ameliorate COVID-19 symptoms			
CN(C)C(=O)COC(=O)Cc1ccc(OC(=O)c2ccc(NC(=N)N)cc2)cc1 [camostat]		eliminated	largely attenuated	completely restored
